Measured values published in ChEMBL document CHEMBL1136984, “Orally active C-6 heteroaryl- and heterocyclyl-substituted imidazo[1,2-a]pyridine acid pump antagonists (APAs)” (Bioorg Med Chem Lett, 2009).

Key:
[1] = buffer, pH 7.4
[2] = Blood clearance in dog at 1 mg/kg/hr, iv dosed in saline containing hydroxylpropyl-beta-cyclodextrin and DMSO; format: ADME, organism-based, Canis lupus familiaris; parameters: route intravenous
[3] = in vivo; conditions: rat, blood, iv, 1 mg/kg
[4] = in vivo; conditions: rat, iv, 1 mg/kg
[5] = in vivo; conditions: dog, iv, 1 mg/kg
[6] = in vivo; conditions: dog, iv, 1 mg/kg; remark: listed apart in the source
[7] = in vivo; conditions: rat, po, 1 mg/kg
[8] = in vivo; conditions: dog, po, 1 mg/kg
[9] = in vivo; conditions: rat, iv, 1 mg/kg; remark: listed apart in the source

Cc1cccc(CNc2cc(-n3ccccc3=O)cn3c(C)c(C)nc23)c1
CHI [1]: 2.17

Cc1cccc(C)c1CNc1cc(-n2cncn2)cn2c(C)c(C)nc12
clearance [2]: 50 mL/min/kg | CHI [1]: 3.07 | clearance [3]: 83 mL/min/kg | Vd [4]: 3.5 L/kg | Vd [5]: 6.6 L/kg | half-life [6]: 2.3 h | bioavailability [7]: 21% | bioavailability [8]: 12%

Cc1cccc(C)c1CNc1cc(-n2cc(C(N)=O)ccc2=O)cn2c(C)c(C)nc12
CHI [1]: 1.71

CCc1cccc(C)c1CNc1cc(C(N)=O)cn2c(C)c(C)nc12
CHI [1]: 2.52

Cc1cccc(C)c1COc1cc(-n2ccccc2=O)cn2c(C)c(C)nc12
CHI [1]: 2.12

Cc1nc2c(NCc3cccnc3)cc(-n3ccccc3=O)cn2c1C
CHI [1]: 0.73

COc1ccccc1CNc1cc(-n2ccccc2=O)cn2c(C)c(C)nc12
CHI [1]: 1.93

Cc1cccc(C)c1CNc1cc(-n2ccccc2=O)cn2c(CO)c(C)nc12
clearance [2]: 10 mL/min/kg | clearance [3]: 37 mL/min/kg | Vd [4]: 1 L/kg | Vd [5]: 1.1 L/kg | half-life [9]: 5.3 h | half-life [6]: 1.6 h | bioavailability [7]: 28% | bioavailability [8]: 36%

Cc1nc2c(NCc3ccc(F)cc3Cl)cc(-n3ccccc3=O)cn2c1C
CHI [1]: 2.26

Cc1cccc(C)c1CNc1cc(-n2ccc(=O)cc2)cn2c(C)c(C)nc12
CHI [1]: 1.58

Cc1nc2c3c(c(-n4ccccc4=O)cn2c1C)CC[C@@H](c1ccccc1)N3
CHI [1]: 3.35

Cc1cccc(C)c1CNc1cc(N2CCCCC2=O)cn2c(C)c(C)nc12
CHI [1]: 2.79

Cc1cccc(C)c1CNc1cc(-n2cnccc2=O)cn2c(C)c(C)nc12
CHI [1]: 2.33

Cc1nc2c(NCc3ccc(F)cc3Cl)cc(-n3cncn3)cn2c1C
CHI [1]: 2.61

Cc1cccc(C)c1CNc1cc(C(=O)NCCO)cn2c(C)c(C)nc12 [LINAPRAZAN]
CHI [1]: 2.14

Cc1cn2cc(-n3ccccc3=O)cc(NCc3c(C)cccc3C)c2n1
clearance [3]: 58 mL/min/kg | Vd [4]: 1.8 L/kg | half-life [9]: 0.5 h | bioavailability [7]: 18%
